Assay results published in patent US4902699A, “Oxime of 1, 2, 5, 6-tetrahydropyridine compounds their use as medicaments and the compositions containing them” (Roussel Uclaf, priority 1987, dated 1990).
Structures can show the parent of a compound that is named as a salt. Where two headings read alike, the source gives them in different places. Values belong to the compound of their own block, whether it stands above or below them.

Experiments:
[1] = system: male mice (CD1 Charles RAivers); experiment: Variation of the body temperature (duration of action); format: in vivo
Method: (§1) The test is carried out on male mice (CD1 Charles RAivers) weighing 25-30 g, having fasted for 6 hours.
The temperature of the body is noted by means of a thermocouple inserted about 1.5 cm in the rectum and connected to an electric temperature recorder. […]
The duration of action of the products is determined, using the doses able to reduce the temperature by 1° to 1.5° C.

[2] = system: male mice (CD1 Charles RAivers); experiment: Hypothermic activity; format: in vivo; conditions: Mus musculus, read-out: Effective dose (-1° C.)
Method: as §1
The temperature of the body is noted by means of a thermocouple inserted about 1.5 cm in the rectum and connected to an electric temperature recorder.
The products are administered by oral or sub-cutaneous route and the temperatures are noted at the instant 0 and at 30 minutes, 1 hour, 2 hours and 2 and a half hours after treatment.
The degree of hypothermia is evaluated as the difference between the treated animals and the controls, and the dose necessary to reduce the body temperature by 1° C. is noted.

[3] = Diarrhoeic activity; parameters: species or system mice; conditions: mouse, in vivo; oral route; dose which causes diarrhoea in 50% of the animals; read-out: DE50 (the source's name)
Method: The test is carried out on male mice (CD1 Charles Rivers) weighing […], after fasting for 6 hours. The product dissolved at 5% in methocel is administered by oral route by means of an oesophage probe.
Control animals receive only the excipient.
After treatment, the animals are placed separately in cages of which the base is covered with blotting paper, and they are put under observation for 30, 60, 120 and 180 minutes.
The sheets of absorbent paper are changed after each observation.
The consistency of the feces is evaluated according to the method of Randall and Baruth (Arch. Int. Pharmacodyn. 220, 94, 1976) according to the following scale of values.
1: feces slightly soft, with or without a damp halo
2: feces slightly soft, with a well defined circle of humidity.
3: feces soft with a large circle of humidity.
4: feces without consistency with a very large circle of humidity.
For each product, the dose is noted which causes diarrhoea in 50% of the animals according to the method of Miller and Tainter (Proc. Soc. Exp. Biol. Med., 57, 261, 1944).

[4] = system: ileum isolated from guinea-pig; experiment: Test of ileum isolated from guinea-pig, agonist (contracting) activity; conditions: Cavia porcellus; negative logarithm of the dose which produces 50% of the maximum effect; read-out: pD2 (converted)
Method: Pieces of ileum are removed from guinea-pigs killed by decapitation. The isolated ileum is placed in 10 cm^3 of Tyrode solution at 37° C. and aerated with a mixture of oxygen (95%) and carbon dioxide gas (5%). The contractions due to the products are registered by means of a detector connected to a polygraph. The products to be tested are added at concentrations between 1.10^-3 M and 1.10^-8 M/l.
The products presenting a contracting effect are tested vis-a-vis atropine and hexamethonium in order to establish if the activity is of "muscarine" or "nicotine" type.
The agonist activity is expressed in pD2 (negative logarithm of the dose which produces 50% of the maximum effect).

[5] = Acute toxicity, oral; parameters: species or system mice; conditions: mouse, in vivo, mortality during 7 days
Method: The test was carried out on male mice (CD1 Charles Rivers), of 22 to 24 g, having fasted for 16 hours. […] The mortality is noted during the 7 days following the treatment.

[6] = Solubility; format: physicochemical

Structure (SMILES): COC(=O)C1=CCCN(C)C1 [Arecoline HBr, reference compound]
- Variations of the body temperature ([1]; os, 200 mg/kg, 30 min): -1.1 °C
- Variations of the body temperature ([1]; os, 200 mg/kg, 60 min): -1.0 °C
- Variations of the body temperature ([1]; os, 200 mg/kg, 120 min): -0.2 °C
- Variations of the body temperature ([1]; os, 200 mg/kg, 180 min): -0.1 °C
- Variations of the body temperature ([1]; sc, 3.5 mg/kg, 30 min): -1.5 °C
- Variations of the body temperature ([1]; sc, 3.5 mg/kg, 60 min): -0.1 °C
- Variations of the body temperature ([1]; sc, 3.5 mg/kg, 120 min): +0.2 °C
- Variations of the body temperature ([1]; sc, 3.5 mg/kg, 180 min): +0.2 °C
- ED (-1 C) ([2]; O.R. (oral route)): 194 mg/kg
- ED (-1 C) ([2]; SC.R (sub-cutaneous route)): 3 mg/kg

Structure (SMILES): CON=CC1=CCCN(O)C1 [Example 1, Hydrochloride of the methyl ether of 1-hydroxy-1,2,5,6-tetrahydropyridin-3-carboxaldehyde oxime]
- ED50 [3]: 0.5 mg/kg
- EC50 [4]: 4.17 µM
- LD50 at 168 h [5]: 60 mg/kg
- Variations of the body temperature ([1]; os, 0.25 mg/kg, 30 min): -1.4 °C
- Variations of the body temperature ([1]; os, 0.25 mg/kg, 60 min): -1.2 °C
- Variations of the body temperature ([1]; os, 0.25 mg/kg, 120 min): -0.1 °C
- Variations of the body temperature ([1]; os, 0.25 mg/kg, 180 min): -0.1 °C
- Variations of the body temperature ([1]; sc, 0.25 mg/kg, 30 min): -1.4 °C
- Variations of the body temperature ([1]; sc, 0.25 mg/kg, 60 min): -1.1 °C
- Variations of the body temperature ([1]; sc, 0.25 mg/kg, 120 min): -0.1 °C
- Variations of the body temperature ([1]; sc, 0.25 mg/kg, 180 min): -0.1 °C
- ED (-1 C) ([2]; O.R. (oral route)): 0.19 mg/kg
- ED (-1 C) ([2]; SC.R (sub-cutaneous route)): 0.2 mg/kg

- Solubility in 2N HCl ([6]; 2N HCl): Soluble
- Solubility in 2N NaOH ([6]; 2N NaOH): Soluble
- Solubility in water ([6]; H2O): Soluble
Structure (SMILES): CON=CC1=CCCN(OC)C1 [Example 2, Hydrochloride of the methyl ether of 1-methoxy-1,2,5,6-tetrahydropyridin-3-carboxaldehyde oxime]

Structure (SMILES): CCOC(=O)ON1CCC=C(C=NOC)C1 [Example 6, Methyl ether of 1-ethoxy carbonyloxy-1,2,5,6-tetrahydropyridin-3-carboxaldehyde oxime]
- ED50 [3]: 0.6 mg/kg
- EC50 [4]: 11.5 µM
- LD50 at 168 h [5]: 125 mg/kg
- Variations of the body temperature ([1]; os, 0.35 mg/kg, 30 min): -1.3 °C
- Variations of the body temperature ([1]; os, 0.35 mg/kg, 60 min): -1.1 °C
- Variations of the body temperature ([1]; os, 0.35 mg/kg, 120 min): -0.1 °C
- Variations of the body temperature ([1]; sc, 0.35 mg/kg, 30 min): -1.4 °C
- Variations of the body temperature ([1]; sc, 0.35 mg/kg, 60 min): -1.1 °C
- Variations of the body temperature ([1]; sc, 0.35 mg/kg, 120 min): -0.1 °C
- Variations of the body temperature ([1]; sc, 0.35 mg/kg, 180 min): +0.1 °C
- ED (-1 C) ([2]; O.R. (oral route)): 0.26 mg/kg
- ED (-1 C) ([2]; SC.R (sub-cutaneous route)): 0.24 mg/kg

Structure (SMILES): CON=CC1=CCCN(OC(=O)c2ccccc2)C1 [Example 7, Methyl ether of 1-benzoyloxy-1,2,5,6-tetrahydropyridin-3-carboxaldehyde oxime]
- ED50 [3]: 1.5 mg/kg
- EC50 [4]: > 100 µM
- LD50 at 168 h [5]: 90 mg/kg
- Variations of the body temperature ([1]; os, 0.5 mg/kg, 30 min): -1.1 °C
- Variations of the body temperature ([1]; os, 0.5 mg/kg, 60 min): -0.9 °C
- Variations of the body temperature ([1]; os, 0.5 mg/kg, 180 min): +0.1 °C
- Variations of the body temperature ([1]; sc, 0.25 mg/kg, 30 min): -1.2 °C
- Variations of the body temperature ([1]; sc, 0.25 mg/kg, 60 min): -0.9 °C
- Variations of the body temperature ([1]; sc, 0.25 mg/kg, 180 min): +0.1 °C
- ED (-1 C) ([2]; O.R. (oral route)): 0.42 mg/kg
- ED (-1 C) ([2]; SC.R (sub-cutaneous route)): 0.21 mg/kg

Structure (SMILES): CCCNC(=O)ON1CCC=C(C=NOC)C1 [Example 10, Methyl ether of 1-propyl aminocarbonyloxy-1,2,5,6-tetrahydropyridin-3-carboxyaldehyde oxime]
- ED50 [3]: 20 mg/kg
- EC50 [4]: > 100 µM
- LD50 at 168 h [5]: 125 mg/kg
- Variations of the body temperature ([1]; os, 1.56 mg/kg, 30 min): -1.2 °C
- Variations of the body temperature ([1]; os, 1.56 mg/kg, 60 min): -1.0 °C
- Variations of the body temperature ([1]; os, 1.56 mg/kg, 120 min): -0.1 °C
- Variations of the body temperature ([1]; os, 1.56 mg/kg, 180 min): +0.1 °C
- Variations of the body temperature ([1]; sc, 1.56 mg/kg, 30 min): -1.2 °C
- Variations of the body temperature ([1]; sc, 1.56 mg/kg, 60 min): -1.1 °C
- Variations of the body temperature ([1]; sc, 1.56 mg/kg, 180 min): +0.1 °C
- ED (-1 C) ([2]; O.R. (oral route)): 1.4 mg/kg
- ED (-1 C) ([2]; SC.R (sub-cutaneous route)): 1.3 mg/kg

Structure (SMILES): CON=CC1=CCCN(OC(=O)Nc2ccccc2)C1 [Example 13, Methyl ether of 1-phenylaminocarbonyloxy 1,2,5,6-tetrahydropyridin-3-carboxaldehyde oxime]
- ED50 [3]: 5 mg/kg
- EC50 [4]: > 100 µM
- LD50 at 168 h [5]: 250 mg/kg
- Variations of the body temperature ([1]; os, 1. mg/kg, 30 min): -1.4 °C
- Variations of the body temperature ([1]; os, 1. mg/kg, 60 min): -1.1 °C
- Variations of the body temperature ([1]; os, 1. mg/kg, 120 min): -0.1 °C
- Variations of the body temperature ([1]; os, 1. mg/kg, 180 min): +0. °C.
- Variations of the body temperature ([1]; sc, 0.5 mg/kg, 30 min): -1.2 °C
- Variations of the body temperature ([1]; sc, 0.5 mg/kg, 60 min): -1.2 °C
- Variations of the body temperature ([1]; sc, 0.5 mg/kg, 120 min): -0.1 °C
- ED (-1 C) ([2]; O.R. (oral route)): 0.74 mg/kg
- ED (-1 C) ([2]; SC.R (sub-cutaneous route)): 0.43 mg/kg

Structure (SMILES): CON=CC1=CCCN(OC(=O)Nc2ccc(Cl)cc2)C1 [Example 14, Methyl ether of 1-(4-chlorophenylaminocarbonyloxy)-1,2,5,6-tetrahydropyridin-3-carboxaldehyde oxime]
- ED50 [3]: 10 mg/kg
- EC50 [4]: > 100 µM
- LD50 at 168 h [5]: > 1000 mg/kg
- Variations of the body temperature ([1]; os, 2.5 mg/kg, 30 min): -1.3 °C
- Variations of the body temperature ([1]; os, 2.5 mg/kg, 60 min): -1.5 °C
- Variations of the body temperature ([1]; os, 2.5 mg/kg, 120 min): -0.3 °C
- Variations of the body temperature ([1]; os, 2.5 mg/kg, 180 min): +0.1 °C
- Variations of the body temperature ([1]; sc, 2.5 mg/kg, 30 min): -0.4 °C
- Variations of the body temperature ([1]; sc, 2.5 mg/kg, 60 min): -1.5 °C
- Variations of the body temperature ([1]; sc, 2.5 mg/kg, 120 min): -1.3 °C
- Variations of the body temperature ([1]; sc, 2.5 mg/kg, 180 min): -0.2 °C
- ED (-1 C) ([2]; O.R. (oral route)): 1.8 mg/kg
- ED (-1 C) ([2]; SC.R (sub-cutaneous route)): 1.8 mg/kg

Structure (SMILES): CON=CC1=CCCN(OC(=O)Nc2ccc(C(C)C)cc2)C1 [Example 15, Methyl ether of 1-(4-isopropylphenylaminocarbonyloxy) 1,2,5,6-tetrahydropyridin-3-carboxaldehyde oxime]
- ED50 [3]: 20 mg/kg
- EC50 [4]: > 100 µM
- LD50 at 168 h [5]: 350 mg/kg
- Variations of the body temperature ([1]; os, 2. mg/kg, 30 min): -0.8 °C
- Variations of the body temperature ([1]; os, 2. mg/kg, 60 min): -1.0 °C
- Variations of the body temperature ([1]; os, 2. mg/kg, 120 min): +0. °C.
- Variations of the body temperature ([1]; os, 2. mg/kg, 180 min): +0.1 °C
- Variations of the body temperature ([1]; sc, 4. mg/kg, 30 min): -0.5 °C
- Variations of the body temperature ([1]; sc, 4. mg/kg, 60 min): -1.5 °C
- Variations of the body temperature ([1]; sc, 4. mg/kg, 120 min): -1.5 °C
- Variations of the body temperature ([1]; sc, 4. mg/kg, 180 min): -0.3 °C
- ED (-1 C) ([2]; O.R. (oral route)): 1.9 mg/kg
- ED (-1 C) ([2]; SC.R (sub-cutaneous route)): 2.4 mg/kg

Structure (SMILES): CON=CC1=CCCN(OC(=O)Nc2ccc(OC)cc2)C1 [Example 16, Methyl ether of 1-paramethoxyphenylaminocarbonyloxy-1,2,5,6-tetrahydropyridin-3-carboxaldehyde oxime]
- ED50 [3]: 6 mg/kg
- EC50 [4]: > 100 µM
- LD50 at 168 h [5]: 60 mg/kg
- Variations of the body temperature ([1]; os, 1. mg/kg, 30 min): -1.1 °C
- Variations of the body temperature ([1]; os, 1. mg/kg, 60 min): -1.1 °C
- Variations of the body temperature ([1]; os, 1. mg/kg, 120 min): -0.1 °C
- Variations of the body temperature ([1]; sc, 1. mg/kg, 30 min): -1.2 °C
- Variations of the body temperature ([1]; sc, 1. mg/kg, 60 min): -1.5 °C
- Variations of the body temperature ([1]; sc, 1. mg/kg, 120 min): -0.3 °C
- Variations of the body temperature ([1]; sc, 1. mg/kg, 180 min): +0.1 °C
- ED (-1 C) ([2]; O.R. (oral route)): 0.88 mg/kg
- ED (-1 C) ([2]; SC.R (sub-cutaneous route)): 0.78 mg/kg
